Assay results reported in US6649402B2, “Microfabricated microbial growth assay method and apparatus” (Wisconsin Alumni Research Foundation, priority 2001, dated 2003).

System: E. coli K-12 MG 1655
Test: microbial growth assay by impedance (capacitance and resistance) measurement in 30 μl wells
Format: cell-based
Details: 37° C.
Experimental: As an example of the utilization of the apparatus 20 of FIGS. 1 and 2, a single colony of E. coli K-12 MG 1655 was used to inoculate five ml of Luria Broth (LB) which was grown overnight at 37° C. with constant aeration. A 1% inoculum was used to subculture in fresh LB medium and grew to OD600 of 0.5 (measured by a Beckman DU-20 spectrophotometer). 15 μl of cell culture was mixed with 15 μl of LB medium in samples with and without ampicillin (100 μg/ml), and aliquoted into the wells 22. In addition, an equal volume of LB medium (30 μl) with ampicillin was aliquoted into an additional well to function as a negative control.
The switch/control unit 34 was used to switch the connection of the LCR meter 36 to the conductors 30 and 31 leading to the electrodes of the wells 22 in sequence. A 10 mV rms alternating current signal of varying frequency (between 75 kHz and 30 MHz) was used for electrical excitation and was applied between the electrodes 24 and 25. […] At each frequency, impedance (capacitance and resistance) was measured between the electrodes 24 and 25 for each of the four wells. […] The values of the impedance (assuming a parallel RC equivalent circuit model, resistance and capacitance, R and C) between the electrodes 24 and 25 at each of the cells was recorded periodically over about 16 hours under the control of the computer 41. […]

CC1(C)S[C@@H]2[C@H](NC(=O)[C@H](N)c3ccccc3)C(=O)N2[C@H]1C(=O)O [ampicillin]
capacitance (and resistance) between the electrodes at a well containing bacteria over time (ampicillin 100 μg/ml in LB medium, measured at 75 kHz and 400 kHz, about 16 hours, relative to control well without bacteria, without ampicillin capacitance increases exponentially): remains constant | time within which the antibacterial effect can be detected (ampicillin 100 μg/ml, E. coli in LB medium, impedance readout): less than one hour
